Data: article PMC6538953, “Metal Ions Activate the Human Taste Receptor TAS2R7” (Chemical Senses, 2019)
Substitutions are numbered along the chain they refer to. Entries after “also recorded” stand apart in the source; their conditions may differ. Where a name gives a salt, the structure may show the parent alone. Read-outs that look alike come from different tables or passages of the source.

Key:
human TAS2R14 = molecular target: T1, human TAS2R14 (Homo sapiens, UniProt Q9NYV8); test: Calcium mobilization assay, HEK293 cells transfected with TAS2R14 and Gα16-gust44; format: cell-based; conditions: 0.5 mM; Figure 3B
T1 construct: first 45 residues of rat somatostatin receptor 3 (signal peptide) (N); expressed in transfected cells; host or cells: HEK293 (PEAKrapid, ATCC CRL-2828)
T1 sequence (Q9NYV8 1-317): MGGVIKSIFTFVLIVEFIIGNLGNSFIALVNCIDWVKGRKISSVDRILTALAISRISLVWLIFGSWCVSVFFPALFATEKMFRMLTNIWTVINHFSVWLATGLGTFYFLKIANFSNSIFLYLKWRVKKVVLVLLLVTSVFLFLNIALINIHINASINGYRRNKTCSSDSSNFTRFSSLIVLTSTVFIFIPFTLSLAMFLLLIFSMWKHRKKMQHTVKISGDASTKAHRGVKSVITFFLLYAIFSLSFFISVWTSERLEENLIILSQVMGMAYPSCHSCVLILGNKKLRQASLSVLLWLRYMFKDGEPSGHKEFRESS
Excerpt: The coding sequences of human TAS2Rs were amplified from human genomic DNA, then subcloned into pcDNA3.1(+) vector, with the herpes simplex virus glycoprotein D epitope (HSV) at the C-terminal and a signal peptide consisting of the first 45 amino acid residues of the rat somatostatin receptor 3 at the N-terminal, essentially as described previously ([Bufe et al. 2002]). Point mutations in human TAS2R7 (NCBI Reference Sequence: NP_076408.1) were constructed by site-directed mutagenesis. All the constructs were confirmed by Sanger sequencing. […]
(§1) Human embryonic kidney 293 (PEAKrapid, ATCC # CRL-2828) cells were cultured in Opti-MEM medium with 4% fetal bovine serum. […] After incubation, cells were washed 2 times with HBSS (including 10 mM HEPES), incubated in the dark for another 30 min, and then washed with assay solution once more before running the assay using a FlexStation III reader. Relative fluorescence units (excitation at 494 nm, emission at 516 nm, and auto cutoff at 515 nm) were read every 2 s for 2 min. Calcium mobilization traces were recorded.
(§2) Calcium mobilization traces were raw data obtained from single wells. Changes in fluorescence (ΔF) were calculated as the peak fluorescence minus baseline fluorescence ([Lei et al. 2015]). The calcium mobilization was quantified as the percentage of change (ΔF) relative to baseline (F). […]

human TAS2R7 [1] = molecular target: T2, human TAS2R7 (Homo sapiens, UniProt Q9NYW3); test: Calcium mobilization assay, HEK293 cells transfected with TAS2R7 and Gα16-gust44; format: cell-based; conditions: for Dose dependence of TAS2R7 response: Figure 2A,C; for Activation of TAS2R7 by metal ions: 20 mM, Figure 1A,B; for Compounds triggering detectable responses in cells transfected with TAS2R7: at the concentrations reported previously (Meyerhof et al. 2010), Figure 4A
T2 construct: first 45 residues of rat somatostatin receptor 3 (signal peptide) (N); expressed in transfected cells; host or cells: HEK293 (PEAKrapid, ATCC CRL-2828)
T2 sequence (Q9NYW3 1-318): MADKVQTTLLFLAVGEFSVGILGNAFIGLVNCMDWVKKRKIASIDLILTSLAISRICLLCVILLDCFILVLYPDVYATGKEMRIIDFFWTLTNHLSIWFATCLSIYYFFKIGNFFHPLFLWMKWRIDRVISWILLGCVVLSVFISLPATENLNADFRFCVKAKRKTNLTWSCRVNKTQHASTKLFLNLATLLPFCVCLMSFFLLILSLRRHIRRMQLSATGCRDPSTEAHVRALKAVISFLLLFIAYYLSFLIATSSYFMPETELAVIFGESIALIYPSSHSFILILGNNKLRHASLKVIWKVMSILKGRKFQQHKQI
Excerpt: (§3) The coding sequences of human TAS2Rs were amplified from human genomic DNA, then subcloned into pcDNA3.1(+) vector, with the herpes simplex virus glycoprotein D epitope (HSV) at the C-terminal and a signal peptide consisting of the first 45 amino acid residues of the rat somatostatin receptor 3 at the N-terminal, essentially as described previously ([Bufe et al. 2002]). Point mutations in human TAS2R7 (NCBI Reference Sequence: NP_076408.1) were constructed by site-directed mutagenesis. All the constructs were confirmed by Sanger sequencing.
All tested compounds were purchased from Sigma–Aldrich, with the exception of diphenidol hydrochloride (Reagent World) and L-praziquantel (manufactured by Shaoxing Pharmaceutical Co. Ltd.). All the metal ions were dissolved in the assay solution (130 mM NaCl, 5 mM KCl, 2 mM CaCl2, and 10 mM glucose; pH 7.4) unless specified otherwise, and the bitter compounds (diphenidol, quinine, and chlorphenamine) were dissolved first in dimethyl sulfoxide (DMSO) as stock solution and then diluted with the assay solution; the final DMSO concentration was below 0.5%, with the exception of cromolyn, which is dissolved in the assay solution directly. For our initial screening (Table 1), Hanks’ balanced salt solution (HBSS, ThermoFisher, catalog no. 14025134) supplemented with 10 mM hydroxyethyl piperazineethanesulfonic acid (HEPES) were used as the assay buffer.
(§4) Human embryonic kidney 293 (PEAKrapid, ATCC # CRL-2828) cells were cultured in Opti-MEM medium with 4% fetal bovine serum. One day before transfection, cells were seeded on a 96-well plate at a density of 25 000 per well. Cells were then transiently transfected with a TAS2R construct (0.1 µg/well) along with a G protein Gα16-gust44 (0.1 µg/well) construct by Lipofectamine 2000 (0.5 µl/well). For controls, only Gα16-gust44 was used (mock transfection). Twenty-four hours after transfection, cells were washed with HBSS including 10 mM HEPES and loaded with Fluo-4 in the dark for 1 h. After incubation, cells were washed 2 times with HBSS (including 10 mM HEPES), incubated in the dark for another 30 min, and then washed with assay solution once more before running the assay using a FlexStation III reader. Relative fluorescence units (excitation at 494 nm, emission at 516 nm, and auto cutoff at 515 nm) were read every 2 s for 2 min. Calcium mobilization traces were recorded.
(§5) Calcium mobilization traces were raw data obtained from single wells. Changes in fluorescence (ΔF) were calculated as the peak fluorescence minus baseline fluorescence ([Lei et al. 2015]). The calcium mobilization was quantified as the percentage of change (ΔF) relative to baseline (F). […] Calcium mobilization traces and bar graphs along with dose-dependent plots were all generated by GraphPad Prism 7. Analysis of variance with Dunnett’s multiple comparisons test was used for statistical analysis. *P < 0.05.
To determine whether a TAS2R responds to metal ions, we expressed all 25 human bitter receptors individually in HEK293 cells (PEAKrapid) by transient transfection of a TAS2R along with a coupling chimeric G protein, Gα16-gust44. All TAS2Rs were cloned from human genomic DNA. Activation of human TAS2Rs was monitored by the calcium mobilization assay ([Lei et al. 2015]). We tested these receptors individually for their responses toward metal ions: ZnSO4 (20 mM), CuSO4 (20 mM), and MgCl2 (20 mM) (Table 1, Figure 1A). […] To determine the breadth of tuning of TAS2R7 toward metal ions, we also tested MnCl2 (20 mM), Al2(SO4)3 ([…]), and CaCl2 (20 mM) (Figure 1B).

[2] = molecular target: T3, human TAS2R7 E264^7.32K mutant (Homo sapiens, UniProt Q9NYW3, E264K); test: Calcium mobilization assay, TAS2R7 mutant E264K; format: cell-based; conditions: 20 mM metal ions except 0.16 mM Al2(SO4)3; cromolyn 10 mM; Figure 6B
T3 construct: signal peptide: first 45 amino acid residues of rat somatostatin receptor 3 (N); expressed in transfected cells; host or cells: HEK293 PEAKrapid (ATCC CRL-2828), transient, co-transfected with Gα16-gust44
T3 sequence (Q9NYW3 1-318 E264K): T2 sequence (Q9NYW3 1-318) with E264K
Excerpt: as §3, §4, §5
To assess the importance of these residues, we performed site-directed mutagenesis. We mutated the negatively charged residues E16^1.42, E264^7.32, and E271^7.39 to Q (glutamine), K (lysine), or L (leucine). The facing H94^3.37 was mutated to F (phenylalanine). HEK293 cells that expressed mutant receptors along with Gα16-gust44 were examined for their responses to metal ions (20 mM for all except 0.16 mM Al2(SO4)3) and cromolyn (10 mM, as a positive control) to assess receptor’s function. To determine the expression level of each receptor, we stained the wild-type or mutant receptor-transfected cells using an anti-HSV antibody since all the receptors are tagged with HSV at c-terminal. […]

[3] = molecular target: T4, human TAS2R7 E264^7.32L mutant (Homo sapiens, UniProt Q9NYW3, E264L); test: Calcium mobilization assay, TAS2R7 mutant E264L; format: cell-based; conditions: 20 mM metal ions except 0.16 mM Al2(SO4)3; cromolyn 10 mM; Figure 6B
T4 construct: signal peptide: first 45 amino acid residues of rat somatostatin receptor 3 (N); expressed in transfected cells; host or cells: HEK293 PEAKrapid (ATCC CRL-2828), transient, co-transfected with Gα16-gust44
T4 sequence (Q9NYW3 1-318 E264L): T2 sequence (Q9NYW3 1-318) with E264L
Excerpt: as §3, §4
as §5, with “0.05. […]” for “0.05.”

[4] = molecular target: T5, human TAS2R7 H94^3.37F mutant (Homo sapiens, UniProt Q9NYW3, H94F); test: Calcium mobilization assay, TAS2R7 mutant H94F; format: cell-based; conditions: 20 mM metal ions except 0.16 mM Al2(SO4)3; Figure 6B
T5 construct: signal peptide: first 45 amino acid residues of rat somatostatin receptor 3 (N); expressed in transfected cells; host or cells: HEK293 PEAKrapid (ATCC CRL-2828), transient, co-transfected with Gα16-gust44
T5 sequence (Q9NYW3 1-318 H94F): T2 sequence (Q9NYW3 1-318) with H94F
Excerpt: as §3, §1, §2

human TAS2R7 [5] = molecular target: T2, human TAS2R7; parameters: method as in Meyerhof et al. 2010; conditions: ref Meyerhof et al. 2010; cited from earlier work
[6] = Supplementary Figure S2, read-out: EC50, TAS2R7, comparison of anions
[7] = assay solution containing calcium, Figures 3A, 4C, read-out: EC50, TAS2R7, in the presence of calcium
[8] = assay solution containing no calcium, Figures 3A, 4C, read-out: EC50, TAS2R7, in the absence of calcium
[9] = assay solution with 2 mM CaCl2, Figure 2, read-out: EC50, TAS2R7 concentration-response

SMILES	Dose dependence of TAS2R7 response (human TAS2R7 [1])	EC50 (human TAS2R7 [1]; [7])	EC50 (human TAS2R7 [1]; [8])	EC50 (human TAS2R7 [1]; [9])	other results
O=C(C1CCCCC1)N1CC(=O)N2CCc3ccccc3[C@@H]2C1 [L-praziquantel]	–	–	–	–	Response amplitude of TAS2R14 in the absence versus presence of calcium (human TAS2R14): reduced response amplitude
O=S(=O)([O-])[O-].[Zn+2] [ZnSO4]	dose-dependent responses	2.41 mM	3.49 mM	–	EC50 (human TAS2R7 [1]; [6]): 3.21 mM; Response of E264K mutant receptor [2]: specific loss of responses; Response of E264L mutant receptor [3]: responded
O=S(=O)([O-])[O-].[Cu+2] [CuSO4]	dose-dependent responses	1.89 mM	0.85 mM	1.04 ± 0.36 mM	–
[Ca+2].[Cl-].[Cl-] [CaCl2]	dose-dependent responses	7.56 mM	4.7 mM	5.27 ± 0.5 mM	Activation of TAS2R7 by metal ions (human TAS2R7 [1]): activated the receptor
[Cl-].[Cl-].[Mg+2] [MgCl2]	dose-dependent responses	7.84 mM	5.78 mM	6.07 ± 1.07 mM	Maximal response of TAS2R7 in the absence versus presence of calcium (human TAS2R7 [1]; assay solution without calcium compared with calcium): smaller
[Cl][Mn][Cl] [MnCl2]	dose-dependent responses	2.24 mM	7.19 mM	6.59 ± 1.73 mM	Activation of TAS2R7 by metal ions (human TAS2R7 [1]): activated the receptor; Response of E264K mutant receptor [2]: still responsive; Response of H94F mutant receptor [4]: diminished responses
CN(C)CCC(c1ccc(Cl)cc1)c1ccccn1 (stereo not drawn) [chlorphenamine, reference compound]	–	–	–	–	Compounds triggering detectable responses in cells transfected with TAS2R7 (human TAS2R7 [1]): none; TAS2R7 reported to respond to bitter compounds (human TAS2R7 [5]): respond
OC(CCCN1CCCCC1)(c1ccccc1)c1ccccc1 [diphenidol, diphenidol hydrochloride, reference compound]	–	–	–	–	Compounds triggering detectable responses in cells transfected with TAS2R7 (human TAS2R7 [1]): none; TAS2R7 reported to respond to bitter compounds (human TAS2R7 [5]): respond
[Cl-].[Cl-].[Zn+2] [ZnCl2]	–	–	–	–	EC50 (human TAS2R7 [1]; [6]): 3.42 mM
C=C[C@H]1C[N@@]2CC[C@H]1C[C@H]2[C@H](O)c1ccnc2ccc(OC)cc12 [quinine, reference compound]	–	–	–	–	Compounds triggering detectable responses in cells transfected with TAS2R7 (human TAS2R7 [1]): none; TAS2R7 reported to respond to bitter compounds (human TAS2R7 [5]): respond
[Cl-].[K+] [KCl, potassium chloride]	–	–	–	–	Activation of TAS2R7 by monovalent salt (human TAS2R7 [1]; any concentration tested, Figures 1C,D and 2A): did not activate the receptor; also recorded: not responsive
